Results on 19 compounds are retold here after ChEMBL document CHEMBL1140018, “Synthesis and structure-activity relationship of imidazo(1,2-a)thieno(3,2-e)pyrazines as IKK-beta inhibitors” (Bioorg Med Chem Lett, 2007).

Series [1] deals with T1, Inhibitor of nuclear factor kappa-B kinase subunit beta (Homo sapiens, UniProt O14920).
T1 sequence (O14920 whole entry): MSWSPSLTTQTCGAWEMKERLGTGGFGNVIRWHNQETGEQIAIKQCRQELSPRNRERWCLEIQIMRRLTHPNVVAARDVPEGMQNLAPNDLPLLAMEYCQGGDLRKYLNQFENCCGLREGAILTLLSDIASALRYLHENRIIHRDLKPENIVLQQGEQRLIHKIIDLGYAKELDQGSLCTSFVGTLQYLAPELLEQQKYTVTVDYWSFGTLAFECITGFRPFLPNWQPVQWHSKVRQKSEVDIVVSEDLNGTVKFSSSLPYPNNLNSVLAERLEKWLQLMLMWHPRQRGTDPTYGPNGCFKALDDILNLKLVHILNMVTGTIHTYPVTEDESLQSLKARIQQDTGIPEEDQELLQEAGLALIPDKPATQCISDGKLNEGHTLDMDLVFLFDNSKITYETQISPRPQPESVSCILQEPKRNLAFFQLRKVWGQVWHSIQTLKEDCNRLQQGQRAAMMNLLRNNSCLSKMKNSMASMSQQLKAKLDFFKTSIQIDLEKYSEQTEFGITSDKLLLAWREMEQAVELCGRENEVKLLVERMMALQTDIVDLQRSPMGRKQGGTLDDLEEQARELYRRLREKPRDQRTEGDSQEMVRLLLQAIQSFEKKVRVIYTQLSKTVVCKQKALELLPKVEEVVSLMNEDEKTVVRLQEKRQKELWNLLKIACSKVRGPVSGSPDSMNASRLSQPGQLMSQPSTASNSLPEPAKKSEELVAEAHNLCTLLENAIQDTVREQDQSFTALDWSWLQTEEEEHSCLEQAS

Series [2] addresses T2, Inhibitor of nuclear factor kappa-B kinase subunit alpha (Homo sapiens, UniProt O15111).
T2 sequence (O15111 whole entry): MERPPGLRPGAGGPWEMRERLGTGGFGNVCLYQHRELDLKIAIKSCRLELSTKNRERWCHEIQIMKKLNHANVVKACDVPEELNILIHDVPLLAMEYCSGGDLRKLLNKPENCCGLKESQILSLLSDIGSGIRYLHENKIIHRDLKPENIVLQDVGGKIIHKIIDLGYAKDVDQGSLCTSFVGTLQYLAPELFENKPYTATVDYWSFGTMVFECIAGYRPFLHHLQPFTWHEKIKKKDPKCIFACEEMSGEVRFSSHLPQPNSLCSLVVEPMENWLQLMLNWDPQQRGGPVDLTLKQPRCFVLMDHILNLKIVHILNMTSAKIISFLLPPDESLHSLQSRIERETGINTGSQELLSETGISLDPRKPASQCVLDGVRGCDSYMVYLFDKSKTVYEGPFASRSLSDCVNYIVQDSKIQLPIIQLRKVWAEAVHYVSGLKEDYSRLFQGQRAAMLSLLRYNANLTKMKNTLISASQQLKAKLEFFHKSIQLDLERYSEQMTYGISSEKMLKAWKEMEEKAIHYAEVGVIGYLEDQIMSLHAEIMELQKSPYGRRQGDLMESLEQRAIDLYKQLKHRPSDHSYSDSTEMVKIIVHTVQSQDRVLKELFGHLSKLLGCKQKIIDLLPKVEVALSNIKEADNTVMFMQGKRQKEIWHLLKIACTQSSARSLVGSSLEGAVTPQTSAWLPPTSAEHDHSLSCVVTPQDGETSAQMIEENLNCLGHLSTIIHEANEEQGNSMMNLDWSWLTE

Series [3] in a line: Cytotoxicity against Jurkat cells by Alamar blue assay. The conditions noted are these: human, Jurkat cells. (Resazurin is reduced to fluorescent resorufin, in cell work by metabolically active cells.)
For series [4], the system named is Jurkat. Briefly: Inhibition of TNF-alpha-induced response in Jurkat cells. The conditions noted are these: Homo sapiens.

Bounds are passed on as bounds.

What is called IC50 is the midpoint of a concentration-inhibition curve. A higher IC50 goes with weaker potency. A word on the CC50: it is the concentration that lowers cell viability or growth by half. Low readings indicate harm at low concentration, high ones better tolerance by the cells. Broadly, the EC50 is the midpoint of the concentration-response curve. Read a low EC50 as an effect from little substance. Turning to `Cc1cnc2c(NCCN)nc3cc(-c4cccc(CCO)c4)sc3n12`, the 50% inhibitory concentration (IC50) in series [1] was determined as 21 nM; in series [2] it was 910 nM. The same compound gave a CC50 in series [3] of 13000 nM. The compound further came in with a half-maximal effective concentration (EC50) in series [4] of 950 nM.
Consider `CNc1nc2cc(-c3cccc(CCC(N)=O)c3)sc2n2c(C)cnc12`, for which the IC50 in series [1] is 19 nM; in series [2] it was 1210 nM. Besides, the half-maximal cytotoxic concentration (CC50) in series [3] is more than 100000 nM. Also, the EC50 in series [4] was found to be 810 nM.
For `Cc1cnc2c(NCCN(C)C)nc3cc(-c4ccccc4)sc3n12` the same measures were 95 nM, 1170 nM, more than 100000 nM and more than 30000 nM.
For `Cc1cnc2c(NCCN)nc3cc(-c4ccccc4CO)sc3n12` the same measures were 130 nM, 4400 nM, more than 100000 nM and 15600 nM.
Turning to `CNc1nc2cc(-c3cccc(CNCC(N)=O)c3)sc2n2c(C)cnc12`, the half-inhibitory concentration (IC50) in series [1] came out at 23 nM; in series [2], 510 nM. Further, the CC50 in series [3] was more than 100000 nM. The compound further showed an EC50 in series [4] of 2610 nM.
Turning to `COc1nc2cc(-c3ccccc3)sc2n2c(C)cnc12`, the IC50 was more than 1000 nM in series [1] and more than 100000 nM in series [2]. For the same compound, the half-maximal cytotoxic concentration (CC50) in series [3] was more than 100000 nM. The 50% effective concentration (EC50) in series [4] was more than 100000 nM.
As for `CC(=O)NCCNc1nc2cc(-c3ccccc3)sc2n2c(C)cnc12`, the concentration for half-maximal inhibition (IC50) in series [1] was 290 nM; in series [2] it was 7030 nM. Further, the CC50 in series [3] is more than 100000 nM. The compound further showed an EC50 in series [4] of 10200 nM.
On to `Cc1cnc2c(NCCN)nc3cc(C4=NCN=C4)sc3n12`, for which the 50% inhibitory concentration (IC50) amounted to 450 nM in series [1] and 3860 nM in series [2]. The compound further gave a CC50 in series [3] of 38000 nM. The EC50 in series [4] is more than 100000 nM.
In the case of `Cc1cnc2c(NCCN)nc3cc(-c4ccccn4)sc3n12`, the IC50 is 190 nM in series [1] and 1240 nM in series [2]. The compound also had a cytotoxic concentration (CC50) in series [3] of 13000 nM. The compound further yielded an EC50 in series [4] of more than 100000 nM.
On to `COc1ccccc1-c1cc2nc(NCCN)c3ncc(C)n3c2s1`, for which the IC50 in series [1] amounted to 280 nM; in series [2], 13000 nM. It took 3500 nM to reach half-maximal cytotoxicity in series [3] (CC50). This compound also registered an EC50 in series [4] of more than 100000 nM.
`CNc1nc2cc(-c3cccc(CCNS(N)(=O)=O)c3)sc2n2c(C)cnc12`: the concentration for half-maximal inhibition (IC50) in series [1] amounted to 7 nM; in series [2], 440 nM. This compound also had a CC50 in series [3] of more than 100000 nM. Also, the midpoint of the response in series [4], the EC50, lay at 920 nM.
Turning to `Cc1cnc2c(NCCN)nc3cc(-c4cn[nH]c4)sc3n12`, the IC50 worked out at 10 nM in series [1] and 1450 nM in series [2]. For the same compound, it took 46000 nM to reach half-maximal cytotoxicity in series [3] (CC50). In series [4], a half-maximal response (EC50) required 8020 nM.
The corresponding values for `CNc1nc2cc(-c3cccc(C(=O)O)c3)sc2n2c(C)cnc12` are 190 nM, 14400 nM, more than 100000 nM and 65700 nM.
In the case of `Cc1cnc2c(NCCNC=O)nc3cc(-c4ccccc4)sc3n12`, the figures for the 50% inhibitory concentration (IC50) in series [1] and in series [2] were 230 nM and 7990 nM, respectively. The same compound displayed a CC50 in series [3] of more than 100000 nM. Moreover, the EC50 in series [4] was found to be 3160 nM.
The compound `CNCCNc1nc2cc3ccccc3cc2n2c(C)cnc12` had an IC50 in series [2] of 420 nM. In series [4], this compound showed a 50% effective concentration (EC50) of 850 nM.
As for `Cc1cnc2c(N)nc3cc(-c4ccccc4)sc3n12`, the IC50 came out at 370 nM in series [1] and 6500 nM in series [2]. The compound also yielded a half-maximal cytotoxic concentration (CC50) in series [3] of more than 100000 nM. Further, the EC50 in series [4] turned out to be 17000 nM.
Take `CNc1nc2cc(-c3cccc(C[C@H](N)C(N)=O)c3)sc2n2c(C)cnc12`: the concentration for half-maximal inhibition (IC50) was found to be 14 nM in series [1] and 260 nM in series [2]. In addition, the CC50 in series [3] is more than 100000 nM. Further, in series [4], a half-maximal effect (EC50) was put at 450 nM.
Regarding `CNc1nc2cc(-c3cccc(CCNC(C)=O)c3)sc2n2c(C)cnc12`, the IC50 in series [1] was 21 nM; in series [2] it was 820 nM. The compound also showed a half-maximal cytotoxic concentration (CC50) in series [3] of more than 100000 nM. The midpoint of the response in series [4], the EC50, lay at 1970 nM.
With `CNc1nc2cc(-c3cccc(CCN)c3)sc2n2c(C)cnc12`, the results for the half-maximal inhibitory concentration (IC50) in series [1] and in series [2] were 45 nM and 650 nM, respectively. The same compound showed a CC50 in series [3] of 21000 nM. This compound also gave an EC50 in series [4] of 6730 nM.
